Test: SPECT and PET imaging biodistribution in mice
Type: in vivo, BALB/c mice
Experimental: For in vivo imaging and stability studies, ^117Sb was produced in 0.5 M NH4OAc at the University of Wisconsin-Madison and experiments were conducted the same day. 2 mL of ^117Sb in 0.5 M NH4OAc pH 4 solution was combined with 220 μL of 10 mM TRENCAM in 20% DMSO solution and heated to 80° C. for 1 h. Quantitative radiolabeling was confirmed via TLC. A 1:5 dilution of the radiolabeling solution with DI H2O was performed before passing it through a C8 Sep-Pak® cartridge (Waters, Milford, MA, USA), preconditioned with 5 mL EtOH and 5 mL H2O) to trap the [^117Sb]Sb-TRENCAM complex. The cartridge was rinsed with 1 mL H2O to remove NH4OAc buffer and unchelated ^117/119Sb, and then the [^117Sb]Sb-TRENCAM complex was eluted with EtOH and collected dropwise. […]
Two groups of healthy 3-month-old male BALB/c mice (n=3) ([…]) were injected with 150 μL ^117Sb solutions. […] In both cases, scanner calibration occurred by imaging vials of ^117Sb activity and correlating image signal strength to activity measured via High Purity Germanium (HPGe) gamma spectroscopy. […] Using co-registered CT images, manual volume-of-interest delineation of tissues allowed activity biodistribution measurement, as expressed as percent injected activity per gram of tissue (% IA/g), using either Inveon Research Workstation (Siemens) for PET VOI analysis or Imalytics 3.0 (MILabs) for SPECT VOI analysis. […]

In the case of `[OH][Sb-]([OH])([OH])([OH])([OH])[OH]` [[^117Sb]Sb(OH)6^−], the “uptake in bone (PET images)” value (PET 150 min post injection) was “uptake” and the “clearance route and organ uptake by PET and SPECT imaging” value (tail vein injection, imaged 20-240 min post injection) was “renal clearance with liver accumulation”.
